The record followed here is patent US20180112006A1, “AGENTS, SYSTEMS AND METHODS FOR TREATING CANCER” (THE GENERAL HOSPITAL CORPORATION, priority 2015, published 2018).

The subject of assay [1] is NSC-TR-TK-GF1 cells. Kind of assay: Ganciclovir elimination of NSC-TR-TK-GF1 in vitro. Type of assay: cell-based, mouse. The conditions noted are these: 10 mg/ml GCV. How it is done: (FIG. 11A) Representative phase and fluorescent images of NSC-TR-TK-GF1 in the presence or absence of 10 mg/ml GCV. Plot showing the Fluc activity of transduced cells in vitro. (FIG. 11B) Viability of MBr-FmC cells co-cultured with modified NSC at 1:1 ratio as measured by Fluc activity in vitro. The effects of NSC engineered with TK or TK-TR are shown. (FIG. 11C) Upper, outline of the experiment. Representative fluorescent images of metastatic MBr-RmC tumors in the mouse brain with or without NSC-TR-TK-GF1 administration to show post-tumor treatment (scale bar=100 μm).
To translate NSC-S-TRAIL therapy for brain metastasis into clinics, it is critical to follow the long-term fate of NSCs post-tumor treatment and ultimately, selectively eradicate therapeutic NSCs to avoid continuous access of therapeutic agent to normal brain tissue and to circumvent any malignant transformation of NSCs. To address this, NSC-S-TRAIL expressing cells were engineered to further express herpes simplex virus thymidine kinase (HSV-TK) and GFP-Fluc (GF1) (NSC-TR-TK-GF1) and tested for efficacy of thymidine kinase suicide therapy in vitro. […] Further, the efficacy of ganciclovir to eradicate NSCs in non-tumor bearing brain was tested. […] Next, the eradication of therapeutic NSCs post-tumor treatment in vivo was tested. NSC-TR-TK-GF1 expressing cells were intracranially injected into MBr-RmC tumor-bearing brains.

In assay [2] the test system is NSC-TR-TK-GF1 cells. Kind of assay: Ganciclovir eradication of NSC-TR-TK-GF1 in mouse brains, Fluc bioluminescence imaging. As to conditions: for eradication of NSCs in non-tumor bearing brain: ganciclovir 75 mg/kg i.p. daily. Type of assay: in vivo, mice. How it is done: Two hundred thousand NSC-TR-TK-GF1 cells were either intracranially or intracarotidly injected in nude mice. Seven days after intracranial injection, or 3 days after intracarotid injection, daily PBS or ganciclovir (75 mg/kg body weight) were administrated via intraperitoneal (i.p.) injection for 2 weeks. NSC fate was assessed by bioluminescence imaging at various time points. To assess the eradication of therapeutic NSC post-tumor treatment, MBr-RmC cells (50 000 cells/mouse) were intracranially injected in nude mice and tumor-bearing mice were injected intratumorally with NSC-TR-TK-GF1 (50 000 cells/mouse) in the mouse brain. Daily PBS or ganciclovir were administrated via intraperitoneal injection after 4 days of NSC injection and the fate of NSCs was assessed by bioluminescence imaging at different time points.

The subject of a further assay is hNSC-TR-TK. Kind of assay: Ganciclovir eradication of modified human NSCs in vitro. Type of assay: cell-based. Details: dose or concentration left out as unconfirmed. On the procedure:
(§1) (FIG. 6A) Plot showing the viability of MBr-FmC cells co-cultured with engineered human NSCs expressing TRAIL (TR), both TRAIL and HSV-TK (TR-TK) or GFP as measured by Fluc activity in vitro. (FIG. 6B) Plot showing the viability of modified human NSCs treated with ganciclovir (10 mg/ml). (FIG. 6C) Plot showing the viability of MBr-FmC cells co-cultured with engineered human MSC expressing TRAIL (TR), both TRAIL and HSV-TK (TR-TK) or GFP. (FIG. 6D) Plot showing the viability of modified human MSCs treated with ganciclovir (10 mg/ml).
(§2) To make the therapeutic strategy more clinically relevant, human NSCs and human MSCs were used and the efficacy of the TRAIL/thymidine kinase system on metastatic tumor cells was tested. Human NSCs and MSCs were engineered to express secreted TRAIL (hNSC-TR/hMSC-TR) or co-express secreted TRAIL and HSV-TK (hNSC-TR-TK/hMSC-TR-TK), and established co-cultures of MBr-FmC with different proportions of modified human NSCs and MSCs.

A further assay has as its system hMSC-TR-TK. Kind of assay: Ganciclovir eradication of modified human MSCs in vitro. Details: dose or concentration left out as unconfirmed. Type of assay: cell-based. On the procedure: as §1, §2
The test system of the next assay is metastatic MBr cells. Kind of assay: TRAIL killing of tumor cells versus normal cells. Type of assay: cell-based.

Consider `Nc1nc(O)c2ncn(COC(CO)CO)c2n1` [ganciclovir], for which the “elimination of modified NSC in vitro (Fluc, GFP)” value in the assay with NSC-TR-TK-GF1 cells [1] is “eliminated”. The “eradication of therapeutic NSCs post-tumor treatment” value in the assay on NSC-TR-TK-GF1 cells [2] (MBr-RmC tumor-bearing brains, vs PBS) was “eradication of therapeutic NSC-TR-TK-GF1”. The “eradication of NSCs in non-tumor bearing brain” value with NSC-TR-TK-GF1 cells [2] (NSCs implanted via intracranial route) and in the assay with NSC-TR-TK-GF1 cells [2] (NSCs via intracarotid route) was “substantially eradicated” throughout. In the assay on hNSC-TR-TK, the “eradication of hNSC-TR-TK in vitro” value was “successfully eradicated”. The “eradication of hMSC-TR-TK in vitro” value in the assay on hMSC-TR-TK is “successfully eradicated”.
In the case of TRAIL, in the assay with metastatic MBr cells, the “killing of tumor cells versus normal cells” value was “specifically killed the tumor cells instead of the normal cells”.
